Measurements reported in patent publication US8697692B2, “Pyrrolo [3,2-c] pyridine-4-one 2-indolinone protein kinase inhibitors” (Shanghai Hengrui Pharmaceutical Co., Ltd., priority 2006, dated 2014).

Assays:
[1] = biological target: T1, EGFR kinase (Homo sapiens, UniProt P00533); assay: EGFR Kinase Assay; format: biochemical; settings: 20 μM ATP, 25° C. 45 minutes
T1 construct: purchased Cell signaling technology #7908
Protocol: EGFR kinase activity in vitro was measured as described below:
a. Wash Buffer (PBS-T Buffer): 1×PBS (137 mM NaCl, 2.7 mM KCl, 4.3 mM Na2HPO4, 1.4 mM KH2PO4, adjust the pH to 7.2) and 0.05% Tween-20.
(§1) b. 1% Bovine Serum Albumin (BSA, Calbiochem #136593) in PBS-T.
c. Stop Buffer: 50 mM EDTA, pH 8.0
d. DELFIA® Europium-labeled Anti-mouse IgG (PerkinElmer Life Sciences #AD0124)
e. DELFIA® Enhancement Solution (PerkinElmer Life Sciences #1244-105)
f. DELFIA® Streptavidin coated, 96-well, yellow plate (PerkinElmer Life Sciences #AAAND-0005)
g. EGFR kinase (supplied in 50 mM Tris-HCl (pH 8.0), 100 mM NaCl, 5 mM DTT, 15 mM reduced glutathione and 20% glycerol. Cell signaling technology #7908).
(§2) h. 10 mM ATP solution (Cell signaling technology #9804).
i. PTP1B (Tyr66) Biotinylated Peptide (Cell signaling technology #1325).
(§3) j. Phospho-Tyrosine Mouse mAb (P-Tyr-100) (Cell signaling technology #9411).
(§4) k. HTScan™ Tyrosine Kinase Buffer (4×)
(§5) (Cell signaling technology #9805).
(§6) l. 1.25 M DTT (1000×) (Cell signaling technology).
(§7) The following protocol was used:
1. Dilute test compound with DMSO to the desired final assay concentration.
2. Dilute 6 μM substrate peptide (Tyr66) 1:1 with dH2O, add 15 μl to every assay.
3. Immediately transfer EGFR enzyme from −80° C. to ice. Allow enzyme to thaw on ice.
4. Take 3 μg EGFR enzyme to the enzyme tube.
(§8) 5. Add 10 μl of DTT (1.25 M) to 2.5 ml of 4×HTScan™ Tyrosine Kinase Buffer (240 mM HEPES pH 7.5, 20 mM MgCl2, 20 mM MnCl2, 12 μM Na3VO4) to make DTT/Kinase buffer.
(§9) 6. Transfer 0.75 ml of DTT/Kinase buffer to each enzyme tube to make 4× reaction cocktail. Add 7.5 μl 4× reaction cocktail to every assay.
7. Add 4 μl ATP (10 mM) to 496 μl dH2O, take 7.5 μl for every assay.
Final Assay Conditions for a 30 μl Reaction
(§10) Incubate reaction tube at 25° C. for 45 minutes. 9. Add 30 μl/assay stop buffer (50 mM EDTA, pH 8.0) to stop the reaction. 10. Transfer 25 μl of each reaction and 75 μl dH2O/well to a 96-well streptavidin coated plate and incubate, with shaking at room temperature for 60 minutes. 11. Wash three times with 200 μl/well PBS-T buffer. Pat plate on paper towel to remove excess liquid. 12. Dilute primary antibody, Phospho-Tyrosine mAb (P-Tyr-100), 1:1000 in PBS-T buffer with 1% BSA. Add 100 μl diluted primary antibody to each well. 13. Incubate, with shaking at room temperature for 60 minutes. 14. Wash as described above in step 11. 15. Dilute Europium labeled anti-mouse IgG 1:500 in PBS-T buffer with 1% BSA. Add 100 μl diluted antibody to each well. 16. Incubate, with shaking at room temperature for 30 minutes. 17. Wash five times with 200 μl/well PBS-T buffer. Pat plate on paper towel to remove excess liquid. 18. Add 100 μl/well DELFIA® Enhancement Solution. 19. Incubate, with shaking at room temperature for 5 minutes. 20. Detect 615 nm fluorescence emission with appropriate Time-Resolved Plate Reader.
(§11) Calculate the inhibition rate: IR (%)=100−100*(X−B)/(N−B)
(§12) X=the fluorescence value of the well contained test compound
(§13) The IC50 value can be derived from the IRs of compounds at different concentration gradients.

[2] = biological target: T2, HER-2/ErbB2 kinase (Homo sapiens, UniProt P04626); assay: HER-2 Kinase Assay (ELISA); format: biochemical; settings: 20 μM ATP, 25° C. 60 minutes
T2 construct: purchased Invitrogen corporation #PV3366
T2 sequence (P04626 23-1255): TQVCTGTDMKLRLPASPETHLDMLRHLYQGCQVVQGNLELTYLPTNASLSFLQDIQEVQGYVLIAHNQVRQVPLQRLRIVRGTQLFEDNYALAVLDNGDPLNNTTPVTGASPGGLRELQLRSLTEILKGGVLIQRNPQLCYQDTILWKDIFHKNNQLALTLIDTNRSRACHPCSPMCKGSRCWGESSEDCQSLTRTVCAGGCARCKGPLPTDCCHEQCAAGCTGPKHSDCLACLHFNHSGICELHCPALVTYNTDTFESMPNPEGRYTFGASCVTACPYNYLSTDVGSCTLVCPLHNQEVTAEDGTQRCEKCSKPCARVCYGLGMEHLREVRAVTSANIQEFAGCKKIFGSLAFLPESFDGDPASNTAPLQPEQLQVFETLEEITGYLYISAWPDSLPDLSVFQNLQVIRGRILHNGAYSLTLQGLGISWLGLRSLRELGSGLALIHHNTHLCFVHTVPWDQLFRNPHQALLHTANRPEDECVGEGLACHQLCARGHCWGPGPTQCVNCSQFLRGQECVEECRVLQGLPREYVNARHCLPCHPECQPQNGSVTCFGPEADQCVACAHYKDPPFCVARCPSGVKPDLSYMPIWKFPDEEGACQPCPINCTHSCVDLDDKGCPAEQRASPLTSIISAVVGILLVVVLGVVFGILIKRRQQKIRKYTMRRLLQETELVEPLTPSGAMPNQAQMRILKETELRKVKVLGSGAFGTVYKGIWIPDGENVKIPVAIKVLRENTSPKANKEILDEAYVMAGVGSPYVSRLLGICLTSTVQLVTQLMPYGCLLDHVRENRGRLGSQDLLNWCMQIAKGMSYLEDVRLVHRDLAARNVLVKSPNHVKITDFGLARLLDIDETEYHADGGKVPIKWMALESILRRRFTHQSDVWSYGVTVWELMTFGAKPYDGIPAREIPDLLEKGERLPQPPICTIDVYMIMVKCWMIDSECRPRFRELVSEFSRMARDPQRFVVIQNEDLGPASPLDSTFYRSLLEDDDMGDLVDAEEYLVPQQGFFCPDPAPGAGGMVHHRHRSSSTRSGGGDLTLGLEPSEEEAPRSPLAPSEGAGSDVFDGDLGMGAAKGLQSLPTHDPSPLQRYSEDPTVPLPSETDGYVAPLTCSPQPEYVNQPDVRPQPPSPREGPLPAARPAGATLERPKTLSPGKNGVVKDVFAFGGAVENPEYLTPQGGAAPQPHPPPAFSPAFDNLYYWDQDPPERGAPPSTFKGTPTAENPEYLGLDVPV
Protocol: An enzyme linked immunosorbent assays (ELISA) was conducted to measure the kinase activity of HER-2 in vitro.
a. Wash Buffer (PBS-T Buffer): 1×PBS (137 mM NaCl; 2.7 mM KCl, 4.3 mM Na2HPO4, 1.4 mM KH2PO4, adjust the pH to 7.2) and 0.05% Tween-20.
as §1
c. Stop Buffer: 50 mM EDTA, pH 8.0.
d. DELFIA® Europium-labeled Anti-mouse IgG (PerkinElmer Life Sciences #AD0124).
e. DELFIA® Enhancement Solution (PerkinElmer Life Sciences #1244-105).
f. DELFIA® Streptavidin coated, 96-well, yellow plate (PerkinElmer Life Sciences #AAAND-0005).
g. HER-2/ErbB2 kinase (Invitrogen corporation #PV3366).
as §2
i. FLT3 (Tyr589) Biotinylated Peptide (Cell signaling technology #1305).
as §3, §4, §5, §6, §7
1. Dilute test compound with DMSO to the desired final assay concentration. Add 1 μl test compound for every assay, to the negative control.
2. Dilute 6 μM substrate peptide (Tyr589) 1:1 with dH2O, add 15 μl to every assay.
3. Immediately transfer HER-2 enzyme from −80° C. to ice. Allow enzyme to thaw on ice.
4. Take 4.5 μg HER-2 enzyme to the enzyme tube.
as §8, §9
7. Add 4 μl ATP (10 mM) to 496 μl dH2O, take 7.5 μl for every assay. Final Assay Conditions for a 30 μl Reaction
as §10, with “60” for “45”
as §11, §12, §13

T1 sequence (P00533 25-1210): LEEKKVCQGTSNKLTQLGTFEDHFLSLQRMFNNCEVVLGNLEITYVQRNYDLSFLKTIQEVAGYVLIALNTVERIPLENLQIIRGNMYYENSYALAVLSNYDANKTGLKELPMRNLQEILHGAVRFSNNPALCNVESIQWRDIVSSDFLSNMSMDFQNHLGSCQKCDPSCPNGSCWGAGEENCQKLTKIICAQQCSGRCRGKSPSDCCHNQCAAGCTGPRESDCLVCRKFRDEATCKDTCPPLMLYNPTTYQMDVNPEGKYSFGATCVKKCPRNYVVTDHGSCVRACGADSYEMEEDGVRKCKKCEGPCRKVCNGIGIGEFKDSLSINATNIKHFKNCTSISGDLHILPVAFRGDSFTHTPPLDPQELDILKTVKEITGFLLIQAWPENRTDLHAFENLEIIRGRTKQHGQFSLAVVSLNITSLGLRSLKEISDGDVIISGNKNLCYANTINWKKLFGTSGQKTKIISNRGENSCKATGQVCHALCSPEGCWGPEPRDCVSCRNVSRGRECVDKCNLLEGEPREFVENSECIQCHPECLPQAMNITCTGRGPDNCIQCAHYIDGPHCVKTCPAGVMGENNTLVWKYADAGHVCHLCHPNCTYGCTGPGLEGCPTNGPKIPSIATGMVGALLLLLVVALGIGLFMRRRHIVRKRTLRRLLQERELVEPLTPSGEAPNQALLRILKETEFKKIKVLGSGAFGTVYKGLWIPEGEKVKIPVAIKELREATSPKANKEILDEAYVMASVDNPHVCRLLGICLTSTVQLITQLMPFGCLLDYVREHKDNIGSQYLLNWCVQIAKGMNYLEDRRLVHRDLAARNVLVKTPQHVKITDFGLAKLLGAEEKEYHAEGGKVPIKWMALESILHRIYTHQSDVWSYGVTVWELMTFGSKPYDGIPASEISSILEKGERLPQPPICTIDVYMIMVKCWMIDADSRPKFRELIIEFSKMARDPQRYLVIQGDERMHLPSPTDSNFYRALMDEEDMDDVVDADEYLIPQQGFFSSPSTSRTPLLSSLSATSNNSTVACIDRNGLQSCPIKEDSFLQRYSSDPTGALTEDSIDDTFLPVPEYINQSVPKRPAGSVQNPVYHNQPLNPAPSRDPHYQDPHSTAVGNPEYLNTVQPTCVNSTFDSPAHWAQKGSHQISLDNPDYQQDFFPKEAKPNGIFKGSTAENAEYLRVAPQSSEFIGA

| IC50 [1] [nM] | IC50 [2] [nM] | SMILES |
| --- | --- | --- |
| 60 | 90 | CCN(CC)CCN1CCc2[nH]c(/C=C3\C(=O)Nc4ncnc(Nc5ccc(F)c(Cl)c5)c43)c(C)c2C1=O [Example 12, 4-(3-Chlor O-4-fluoro-phenylamino)-5-[5-(2-diethylamino-ethyl)-3-methyl-4-oxo-4,5,6,7-tetrahydro-1H-pyrrolo[3,2-c]pyridine-2-ylmethylene]-5,7-dihydro-pyrrolo[2,3-d]pyrimidin-6-one] |
| 210 | 980 | CCN(CC)CCN1CCc2[nH]c(/C=C3\C(=O)Nc4cccc(C5CCNCC5)c43)c(C)c2C1=O [Example 31, 5-(2-Diethylamino-ethyl)-3-methyl-2-(2-oxo-4-piperidin-4-yl-1,2-dihydro-indol-3-ylidenemethyl)-1,5,6,7-tetrahydro-pyrrolo[3,2-c]pyridin-4-one] |
| – | 720 | Cc1c(/C=C2\C(=O)Nc3cccc(-c4cccc(F)c4F)c32)[nH]c2c1C(=O)N(CCN1CCCC1)CC2 [Example 59, 2-[4-(2,3-Difluoro-phenyl)-2-oxo-1,2-dihydro-indol-3-ylidenemethyl]-3-methyl-5-(2-pyrrolidin-1-yl-ethyl)-1,5,6,7-tetrahydro-pyrrolo[3,2-c]pyridin-4-one] |
| 510 | – | Cc1c(/C=C2\C(=O)Nc3ncc(Br)cc32)[nH]c2c1C(=O)N(CCN1CCOCC1)CC2 [Example 50, 2-(5-Bromo-2-oxo-1,2-dihydro-pyrrolo[2,3-b]pyridin-3-ylidenemethyl)-3-methyl-5-(2-morpholin-4-yl-ethyl)-1,5,6,7-tetrahydro-pyrrolo[3,2-c]pyridin-4-one] |
| 310 | 830 | Cc1c(/C=C2\C(=O)Nc3ncnc(Nc4ccc(F)c(Cl)c4)c32)[nH]c2c1C(=O)N(CCN1CCOCC1)CC2 [Example 24, 4-(3-Chloro-4-fluoro-phenylamino)-5-[3-methyl-5-(2-morpholin-4-yl-ethyl)-4-oxo-4,5,6,7-tetrahydro-1H-pyrrolo[3,2-c]pyridine-2-ylmethylenene]-5,7-dihydro-pyrrolo[2,3-d]pyrimidin-6-one] |
| 340 | 270 | CCN(CC)CCN1CCc2[nH]c(/C=C3\C(=O)Nc4cccc(-c5cccc(F)c5F)c43)c(C)c2C1=O [Example 39, 5-(2-diethylamino-ethyl)-2-[4-(2,3-difluoro-phenyl)-2-oxo-1,2-dihydro-indol-3-ylidenemethyl]-3-methyl-1,5,6,7-tetrahydro-pyrrolo[3,2-c]pyridin-4-one] |
| 180 | – | CCN(CC)CCN1CCc2[nH]c(/C=C3\C(=O)Nc4cccc(-c5cccc(Cl)c5F)c43)c(C)c2C1=O [Example 36, 2-[4-(3-Chloro-2-fluoro-phenyl)-2-oxo-1,2-dihydro-indol-3-ylidenemethyl]-5-(2-diethylamino-ethyl)-3-methyl-1,5,6,7-tetrahydro-pyrrolo[3,2-c]pyridin-4-one] |
| 2890 | – | CCN(CC)CCN1CCc2[nH]c(/C=C3\C(=O)Nc4cccc(CCO)c43)c(C)c2C1=O [Example 37, 5-(2-Diethylamino-ethyl)-2-[4-(2-hydroxy-ethyl)-2-oxo-1,2-dihydro-indol-3-ylidenemethyl]-3-methyl-1,5,6,7-tetrahydro-pyrrolo[3,2-c]pyridin-4-one] |
| 3320 | – | CCN(CC)CCN1CCc2[nH]c(/C=C3\C(=O)Nc4ccc(OC)cc43)c(C)c2C1=O [Example 35, 5-(2-Diethylamino-ethyl)-2-(5-methoxy-2-oxo-1,2-dihydro-indol-3-ylidenemethyl)-3-methyl-1,5,6,7-tetrahydro-pyrrolo[3,2-c]pyridin-4-one] |
| – | 8320 | Cc1c(/C=C2\C(=O)Nc3cccc(C4CCNCC4)c32)[nH]c2c1C(=O)N(CCN1CCOCC1)CC2 [Example 52, 3-Methyl-5-(2-morpholin-4-yl-ethyl)-2-(2-oxo-4-piperidin-4-yl-1,2-dihydro-indol-3-ylidenemethyl)-1,5,6,7-tetrahydro-pyrrolo[3,2-c]pyridin-4-one] |
| 4950 | – | CCN(CC)CCN1CCc2[nH]c(/C=C3\C(=O)Nc4cccc(Br)c43)c(C)c2C1=O [Example 30, 2-(4-Bromo-2-oxo-1,2-dihydro-indol-3-ylidenemethyl)-5-(2-diethylamino-ethyl)-3-methyl-1,5,6,7-tetrahydro-pyrrolo[3,2-c]pyridin-4-one] |
| – | 41100 | Cc1c(/C=C2\C(=O)Nc3cccc(CCO)c32)[nH]c2c1C(=O)N(CCN1CCOCC1)CC2 [Example 42, 2-[4-(2-Hydroxy-ethyl)-2-oxo-1,2-dihydro-indol-3-ylidenemethyl]-3-methyl-5-(2-morpholin-4-yl-ethyl)-1,5,6,7-tetrahydro-pyrrolo[3,2-c]pyridin-4-one] |
| 760 | – | Cc1c(/C=C2\C(=O)Nc3ccc(Br)cc32)[nH]c2c1C(=O)N(CCN1CCCC1)CC2 [Example 40, 2-(5-Bromo-2-oxo-1,2-dihydro-indol-3-ylidenemethyl)-3-methyl-5-(2-pyrrolidin-1-yl-ethyl)-1,5,6,7-tetrahydro-pyrrolo[3,2-c]pyridin-4-one] |
| 940 | – | CCN(CC)CCN1CCc2[nH]c(/C=C3\C(=O)Nc4cccc(-c5ccc(Cl)cc5F)c43)c(C)c2C1=O [Example 34, 2-[4-(4-Chloro-2-fluoro-phenyl)-2-oxo-1,2-dihydro-indol-3-ylidenemethyl]-5-(2-diethylamino-ethyl)-3-methyl-1,5,6,7-tetrahydro-pyrrolo[3,2-c]pyridin-4-one] |
